# Measured values from PubChem BioAssay (NCI).
#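 Interpolation was linear, between the two tested concentrations surrounding the appropriate level; five concentrations were tested over 48 hours in 96-well plates. GI50 is the concentration that inhibits growth by half. The concentration for full growth arrest is given as TGI.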
# Legend:
# Test in all cases: DTP human tumour cell line panel, 48 h
# [1] = system: 786-0 renal
# [2] = system: A498 renal
# [3] = system: A549 NSCLC
# [4] = system: HOP-92 NSCLC
# [5] = system: MOLT-4 leukemia
# [6] = system: NCI-H522 lung
# [7] = system: OVCAR-5 ovarian
# [8] = system: OVCAR-8 ovarian
# [9] = system: SW-620 colon
# [10] = system: HL-60(TB) leukemia
SMILES,GI50 [1] [µM],TGI [1] [µM],GI50 [2] [µM],TGI [2] [µM],GI50 [3] [µM],TGI [3] [µM],GI50 [4] [µM],TGI [4] [µM],GI50 [5] [µM],TGI [5] [µM],GI50 [6] [µM],TGI [6] [µM],GI50 [7] [µM],TGI [7] [µM],GI50 [8] [µM],TGI [8] [µM],GI50 [9] [µM],TGI [9] [µM],TGI [10] [µM],GI50 [10] [µM]
C#CC(=O)Nc1cccc2c1cc(C)n2-c1nc2c(c(NCc3ccccc3)n1)CCCC2,0.0189,0.0359,1.75,3.74,1.97,4.1,0.142,0.315,0.15,0.443,0.0174,0.0372,0.279,0.977,0.136,0.779,0.2,0.461,,
O=C(O)c1ccc(C(O)(c2ccccc2)c2ccccc2)cc1,,> 100,,,,> 100,,,,> 100,,> 100,,> 100,,> 100,,,> 100,
Cc1cc(N2CCCCC2)nc(NC2CCCC(Nc3ccnc4cc(Cl)ccc34)C2)n1 (stereo not drawn),1.27,2.59,1.67,3.42,,,,,1.21,3.7,1.95,3.75,1.88,4.84,1.73,3.27,1.49,3.14,,
COc1ccc(C2ON(c3ccccc3)CC=C2C)cc1 (stereo not drawn),,> 100,,,,> 100,,,,> 100,,99.5,,> 100,,> 100,,> 100,> 100,
Cc1ccc2cccc(OC(=O)Nc3cccc(C(F)(F)F)c3)c2n1,4.82,22.2,2.59,9.46,3.44,13.4,2.21,6.66,3.61,24.2,,,6.44,32.1,3.5,14.9,3.46,13.3,38.4,5.41
CC(=O)OCCOCNC(=S)N/N=C/c1cc([N+](=O)[O-])ccc1O,,> 100,,> 100,,> 100,,> 100,,,,> 100,,> 100,,> 100,,> 100,> 100,
Oc1ccc2c3c1OC1c4[nH]ncc4C[C@H]4[C@@H](C2)N(CC2CC2)CC[C@]314 (stereo partly drawn),,> 100,,,,> 100,,> 100,,> 100,,> 100,,> 100,,> 100,,,> 100,
O=C(O)c1cc(=O)cc(C(=O)O)o1,> 100,> 100,> 100,> 100,> 100,> 100,> 100,> 100,> 100,> 100,> 100,> 100,> 100,> 100,,,> 100,> 100,> 100,> 100
Cc1[nH]c2ccccc2c1CC/C(=N\Nc1ccccc1)c1ccccc1,,> 100,,> 100,,> 100,,,,> 100,,,,> 100,,> 100,,> 100,> 100,
Cc1ccc(S(=O)(=O)N2CCN(C=S)CC2)cc1,,> 100,,> 100,,> 100,,,,> 100,,> 100,,> 100,,> 100,,> 100,> 100,
CC1=NN(C(=O)Nc2ccc(Cl)cc2)C(=O)C2CCC(=O)N12 (stereo not drawn),,> 100,,> 100,,> 100,,> 100,,> 100,,,,,,> 100,,> 100,> 100,
Cc1ccc(/C=C(\NC(=O)c2ccccc2)c2nc3ccccc3[nH]2)cc1,,> 100,,> 100,,> 100,,86.5,,,,> 100,,> 100,,> 100,,> 100,56.8,
CC(=O)O[C@H]1CCN2C(=O)C=CC(OCc3ccccc3)C12 (stereo partly drawn),,> 100,,> 100,,> 100,,> 100,,> 100,,,,> 100,,> 100,,> 100,> 100,
COc1cc(CNCCN2C(=O)c3ccc4c5c(ccc(c35)C2=O)C(=O)N(CCNCc2cc(OC)c(OC)c(OC)c2)C4=O)cc(OC)c1OC,0.145,0.391,,,,,,,,,0.123,0.496,,,,,,,,
CC(C)(C)C(=O)Nc1cccc2oc(-c3ccccc3)cc12,,> 100,,> 100,,> 100,,96.4,,> 100,,,,,,> 100,,> 100,> 100,
CC(C)[C@@](O)(c1ccc2cc(OC(F)F)c(OC(F)F)cc2c1)c1cn[nH]n1,17.2,34.1,,,17.6,38.7,13.8,30.2,21.7,70.7,14.3,32.3,21.7,55.6,21.9,53.6,19.7,43.2,66.6,21.9
O=Nc1c(-c2c(O)[nH]c3cc(Br)ccc23)[nH]c2ccccc12,1.22,4.4,0.416,1.83,1.06,4.89,1.97,7.29,2.99,> 100,1.1,4.54,2.25,4.35,2.32,> 100,,,> 32.3,2.75
CCCCNS(=O)(=O)c1n[nH]c(=O)[nH]c1=O,,> 100,,> 100,,> 100,,,,> 100,,> 100,,> 100,,> 100,,> 100,> 100,
O=c1c2ccccc2c(/C=N\NC2=NCCN2)c2oc3ccccc3n12,33.9,> 100,,,16.4,60.3,22.5,51.1,23.8,> 100,16.2,67.6,19.8,37.1,19.4,45.6,22.1,74,92.6,25.3
